Measured values: patent US5580897A, “1,2-dithiins having antifungal activity” (Shaman Pharmaceuticals, Inc., priority 1995, dated 1996)
Converted amounts (≈) assume the structure as drawn.

How the values were obtained:
[1] = tested on: Aspergillus fumigatus ATCC13073 (AF); assay: in vitro antifungal activity, minimum inhibitory concentration; assay type: cell-based
Procedure: (§1) The antifungal activities of representative 1,2-dithiin compounds listed below were determined in vitro using three fungal cultures: Candida albicans ATCC10259 (CA), Cryptococcus neoformans ATCC36556 (CN), and Aspergillus fumigatus ATCC13073 (AF).
(§2) The method used to determine in vitro antifungal activity is discussed in McGinnis, M. R., Laboratory Handbook of Medical Mycology, Academic Press, New York, London, p. 661 (1980); and Drouget, E.; Dupont, B.; Improvist, L.; Vivian, M. A.; and Tortorano, A. M.; "Disc Agar Diffusion and Microplate Automatized Techniques for In Vitro Evaluation of Antifungal Agents on Yeast and Sporulated Pathogenic Fungi" in In Vitro and In Vivo Evaluation of Antifungal Agents, Eds. lwata, K. and Vanden Bossche, H., Elsevier Science Publishers, New York, Oxford, p. 303 (1986).

[2] = tested on: Candida albicans ATCC10259 (CA); assay: as above; assay type: cell-based
Procedure: as §1, §2

[3] = tested on: Cryptococcus neoformans ATCC36556 (CN); assay: as above; assay type: cell-based
Procedure: as §1, §2

[4] = tested on: fungi; conditions: natural products, literature; cited from earlier work
[5] = tested on: virus; conditions: literature; cited from earlier work
[6] = literature; cited from earlier work
[7] = tested on: Aspergillus fumigatus WM-1 (WM-1); assay: in vitro antifungal activity, minimum inhibitory concentration; assay type: cell-based; conditions: Aspergillus fumigatus WM-1, in vitro
Source text: (§3) Additionally, two 1,2-dithiin compounds, 3-(hydroxymethyl)-6-[N-hydroxyiminomethyl]-1,2-dithiin and 3,6-[bis(N-hydroxyiminomethyl)]-1,2-dithiin, were chosen as compounds representative of the 1,2-dithiin class to be tested against a variety of fungi: Candida albicans A-26 (A-26), Candida albicans B311 (B311), Candida krusei GK7831 (CK), Candida parapsilosis CP18 (CP), Candida tropicalis 1525 (CT), Cryptococcus neoformans MI-106 (MI-106), Aspergillus fumigatus WM-1 (WM-1) and Trichophyton rubrum ATCC18762 (TR). The minimum inhibitory concentration (MIC) for 3-(hydroxymethyl)-6-[N-hydroxyiminomethyl]-1,2-dithiin and 3,6-[bis(N-hydroxyiminomethyl)]-1,2-dithiin are shown below in Table II.
as §2

[8] = tested on: Candida albicans A-26 (A-26); assay: as above; assay type: cell-based; conditions: Candida albicans A-26, in vitro
Source text: as §3, §2

[9] = tested on: Candida albicans B311 (B311); assay: as above; assay type: cell-based
Source text: as §3, §2

[10] = tested on: Candida krusei GK7831 (CK); assay: as above; assay type: cell-based; conditions: Pichia kudriavzevii
Source text: as §3, §2

[11] = tested on: Candida parapsilosis CP18 (CP); assay: as above; assay type: cell-based; conditions: Lodderomyces parapsilosis
Source text: as §3, §2

[12] = tested on: Candida tropicalis 1525 (CT); assay: as above; assay type: cell-based; conditions: Candida tropicalis 1525, in vitro
Source text: as §3, §2

[13] = tested on: Cryptococcus neoformans MI-106 (MI-106); assay: as above; assay type: cell-based; conditions: Cryptococcus neoformans MI-106, in vitro
Source text: as §3, §2

[14] = tested on: Trichophyton rubrum ATCC18762 (TR); assay: as above; assay type: cell-based
Source text: as §3, §2

SMILES | MIC [1] [µg/mL] | MIC [2] [µg/mL] | MIC [3] [µg/mL] | other results
O=CC1=CC=C(C=O)SS1 [3-6-Bis(formyl)-1,2-dithiin, 3,6-Bis(formyl)-1,2-dithiin] | 6.3 (≈ 36.6 µM) | 1.6 (≈ 9.29 µM) | 1.6 (≈ 9.29 µM) | –
C=CC#CC#CC1=CC=C(C#CC)SS1 [Thiarubrine A] | – | – | – | antifungal activity [4]: possess both antifungal and antiviral activity; antiviral activity [5]: possess both antifungal and antiviral activity; cytotoxicity [6]: cytotoxic
CON=CC1=CC=C(CO)SS1 [3-(Hydroxymethyl)-6-[N-methoxyiminomethyl]-1,2-dithiin] | 6.3 (≈ 31 µM) | 6.3 (≈ 31 µM) | 6.3 (≈ 31 µM) | –
N#C/C=C/C1=CC=C(CO)SS1 [3-(Hydroxymethyl)-6-[2-cyanoethene-1-yl]-1,2-dithiin] | 6.3 (≈ 31.9 µM) | 12.5 (≈ 63.4 µM) | 3.1 (≈ 15.7 µM) | –
N#CC1=CC=C(CO)SS1 [3-(Hydroxymethyl)-6-cyano-1,2-dithiin] | 0.8 (≈ 4.67 µM) | 0.8 (≈ 4.67 µM) | 0.8 (≈ 4.67 µM) | –
OCC1=CC=C(C=NO)SS1 [3-(Hydroxymethyl)-6-[N-hydroxyiminomethyl]-1,2-dithiin] | 1.6 (≈ 8.45 µM) | 1.6 (≈ 8.45 µM) | 1.6 (≈ 8.45 µM) | MIC [7]: 1.6 µg/mL (≈ 8.45 µM); MIC [8]: 1.6 µg/mL (≈ 8.45 µM); MIC [9]: 1.6 µg/mL (≈ 8.45 µM); MIC [10]: 6.3 µg/mL (≈ 33.3 µM); MIC [11]: 3.1 µg/mL (≈ 16.4 µM); MIC [12]: 6.3 µg/mL (≈ 33.3 µM); MIC [13]: 1.6 µg/mL (≈ 8.45 µM); MIC [14]: 0.8 µg/mL (≈ 4.23 µM)
O=CC1=CC=C(CO)SS1 [3-(Hydroxymethyl)-6-formyl-1,2-dithiin, 3-(Hydroxymethyl)-6-aldehydyl-1,2-dithiin] | 25 (≈ 143 µM) | 12.5 (≈ 71.7 µM) | 6.3 (≈ 36.2 µM) | –
CON=CC1=CC=C(C=NOC)SS1 [3,6-Bis[N-methoxyiminomethyl]-1,2-dithiin] | 6.3 (≈ 27.4 µM) | 0.8 (≈ 3.47 µM) | 1.6 (≈ 6.95 µM) | –
CCOC(=O)/C=C/C1=CC=C(CO)SS1 [3-(Hydroxymethyl)-6-[ethyl propenoate-3-yl]-1,2-dithiin] | 25 (≈ 102 µM) | 12.5 (≈ 51.2 µM) | 6.3 (≈ 25.8 µM) | –
COC(=O)/C=C/C1=CC=C(CO)SS1 [3-(Hydroxymethyl)-6-[methyl propenoate-3-yl]-1,2-dithiin] | 6.3 (≈ 27.4 µM) | 6.3 (≈ 27.4 µM) | 6.3 (≈ 27.4 µM) | –
ON=CC1=CC=C(C=NO)SS1 [3,6-[Bis(N-hydroxyiminomethyl)]-1,2-dithiin] | 0.4 (≈ 1.98 µM) | 0.1 (≈ 0.494 µM) | 0.8 (≈ 3.96 µM) | MIC [7]: 0.2 µg/mL (≈ 0.989 µM); MIC [8]: 0.2 µg/mL (≈ 0.989 µM); MIC [9]: 0.1 µg/mL (≈ 0.494 µM); MIC [10]: 6.3 µg/mL (≈ 31.1 µM); MIC [11]: 0.2 µg/mL (≈ 0.989 µM); MIC [12]: 1.6 µg/mL (≈ 7.91 µM); MIC [13]: 1.6 µg/mL (≈ 7.91 µM); MIC [14]: 0.05 µg/mL (≈ 0.247 µM)
